# Source: BindingDB's records for doi:10.7270/Q28G8J4C (Broad Institute, 2009)
# Structures can show the parent of a compound that is named as a salt.
# Molecular target: T1, POsterior Segregation (Caenorhabditis elegans, UniProt G5EF15)
# T1 sequence (G5EF15 whole entry): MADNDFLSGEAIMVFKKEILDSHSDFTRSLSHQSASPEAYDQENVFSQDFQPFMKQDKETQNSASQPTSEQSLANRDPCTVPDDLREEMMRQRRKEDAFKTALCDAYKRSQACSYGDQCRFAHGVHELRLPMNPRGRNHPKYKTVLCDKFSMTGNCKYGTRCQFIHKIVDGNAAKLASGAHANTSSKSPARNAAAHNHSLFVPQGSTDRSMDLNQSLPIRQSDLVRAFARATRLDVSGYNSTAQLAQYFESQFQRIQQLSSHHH
# Assay: inhibitors of POS-1/mex-3 RNA binding, dose response, biochemical, fluorescence polarization (AID 1964)
row,SMILES,EC50
1,CCN(CC)CCNC=C1C(=O)NC(=O)N(Cc2ccccc2)C1=O [(5Z)-1-benzyl-5-[[2-(diethylamino)ethylamino]methylene]barbituric acid],> 300 µM
2,"COc1ccc(C2C3=C(CC(C)(C)CC3=O)OC(=N)C2C#N)c(OC)c1OC (stereo not drawn) [2-amino-5-keto-7,7-dimethyl-4-(2,3,4-trimethoxyphenyl)-6,8-dihydro-4H-chromene-3-carbonitrile]",> 300 µM
3,Cc1ccc(C2C3CN(C(C)C)CCC3=C(C#N)C(=N)C2(C#N)C#N)cc1 (stereo not drawn) [SMR000034220],7.15 µM
4,"COc1ccc(C2C(C(=O)c3cccs3)C(=O)C(=O)N2c2nnc(C)s2)cc1OC (stereo not drawn) [2-(3,4-dimethoxyphenyl)-1-(5-methyl-1,3,4-thiadiazol-2-yl)-4-oxidanyl-3-thiophen-2-ylcarbonyl-2H-pyrrol-5-one]",7.2 µM
5,"Cc1cc(CN=Nc2ccc([N+](=O)[O-])cn2)c(C)n1-c1ccc(C(=O)O)cc1 [4-{2,5-dimethyl-3-[2-(5-nitro-2-pyridinyl)carbonohydrazonoyl]-1H-pyrrol-1-yl}benzoic acid]",> 300 µM
6,"COc1ccc(C2CC(=O)C(=CNCCCO)C(=O)C2)cc1 (stereo not drawn) [2-[(3-hydroxypropylamino)methylidene]-5-(4-methoxyphenyl)cyclohexane-1,3-dione]",34.8 µM
7,"COc1ccc(C(=O)CC=Nc2ccc([N+](=O)[O-])cc2C)cc1OC [(E)-1-(3,4-dimethoxyphenyl)-3-(2-methyl-4-nitro-anilino)prop-2-en-1-one]",54.6 µM
8,"C=CCOc1ccc(C2C(C(=O)c3ccco3)C(=O)C(=O)N2c2nnc(C)s2)cc1 (stereo not drawn) [3-(furan-2-carbonyl)-4-hydroxy-1-(5-methyl-1,3,4-thiadiazol-2-yl)-2-(4-prop-2-enoxyphenyl)-2H-pyrrol-5-one]",> 300 µM
9,O=C1Nc2ccccc2/C1=N/NC(=S)Nc1ccc(O)cc1 [1-(4-hydroxyphenyl)-3-[(2-oxidanylideneindol-3-yl)amino]thiourea],16.3 µM
10,N#CC1C(=N)OC2=C(C(=O)CCC2)C1c1cc2c(cc1Cl)OCO2 (stereo not drawn) [MLS001183950],> 300 µM
11,"COc1ccccc1N1C(=O)C(=Nc2ccccc2O)C(Cl)C1=O (stereo not drawn) [3-chloranyl-4-[(2-hydroxyphenyl)amino]-1-(2-methoxyphenyl)pyrrole-2,5-dione]",34.7 µM
12,"COc1cccc(CN2C(=O)C3(C4=C(CCCC4=O)OC(=N)C3C#N)c3ccccc32)c1 (stereo not drawn) [2-amino-1'-(3-methoxybenzyl)-2',5-dioxo-1',2',5,6,7,8-hexahydrospiro[chromene-4,3'-indole]-3-carbonitrile]",> 300 µM
13,O=C1NC(=O)N(c2ccc(F)cc2)C(=O)C1=Cc1c[nH]c2ccccc12 [SMR000556295],52.2 µM
14,O=C(/C=C/c1ccco1)NCC(=O)NNC1=c2ccccc2=NC1=O [MLS001075666],13.1 µM
15,"CCCCOc1cccc(C2C(C(=O)c3ccc(C)o3)C(=O)C(=O)N2c2nnc(C)s2)c1 (stereo not drawn) [2-(3-butoxyphenyl)-3-(5-methylfuran-2-yl)carbonyl-1-(5-methyl-1,3,4-thiadiazol-2-yl)-4-oxidanyl-2H-pyrrol-5-one]",102 µM
16,O=C1CCCC2=Nc3cc(Cl)ccc3SC12 (stereo not drawn) [MLS000333002],18.4 µM
17,"O=C1c2cccc([N+](=O)[O-])c2C(=O)N1n1c(O)csc1=S [2-(4-keto-2-thioxo-thiazolidin-3-yl)-4-nitro-isoindoline-1,3-quinone]",24.9 µM
18,NC(=NNC=c1ccc(=C2C=CC(=O)C(C(=O)O)=C2)o1)N[N+](=O)[O-] [5-(5-{2-[amino(nitroimino)methyl]carbonohydrazonoyl}-2-furyl)-2-hydroxybenzoic acid],29.9 µM
19,"Cc1ccc2oc(=O)c(CC(=O)CC(C)C)nc2c1 [(3Z)-3-(2-keto-4-methyl-pentylidene)-6-methyl-4H-1,4-benzoxazin-2-one]",> 300 µM
20,"CC1(C)CC(=O)C2=C(C1)OC(=N)C(C#N)C2c1ccc(OC(=O)N2CCOCC2)cc1 (stereo not drawn) [4-morpholinecarboxylic acid [4-(2-amino-3-cyano-7,7-dimethyl-5-oxo-6,8-dihydro-4H-1-benzopyran-4-yl)phenyl] ester]",> 300 µM
21,"COc1cccc(CN=Nc2ncnc(N)c2[N+](=O)[O-])c1OC [(6-amino-5-nitro-pyrimidin-4-yl)-[(2,3-dimethoxybenzylidene)amino]amine]",18.4 µM
22,COc1ccc(C2C(C(=O)c3cccs3)C(=O)C(=O)N2c2nncs2)cc1 (stereo not drawn),0.549 µM
23,"CCCOc1cccc(C2C(C(=O)c3ccco3)C(=O)C(=O)N2c2nnc(C)s2)c1 (stereo not drawn) [3-(furan-2-carbonyl)-4-hydroxy-1-(5-methyl-1,3,4-thiadiazol-2-yl)-2-(3-propoxyphenyl)-2H-pyrrol-5-one]",51.9 µM
24,C=c1[nH]n(-c2cccc(C(=O)O)c2)c(=O)c1=CC=Cc1ccco1 [SMR000113614],19.9 µM
25,"CC1(C)CC(=O)C2=C(C1)OC(=N)C(C#N)[C@@]21C(=O)N(CC(N)=O)c2ccccc21 (stereo partly drawn) [2-[(4R)-2-amino-3-cyano-2',5-diketo-7,7-dimethyl-spiro[6,8-dihydrochromene-4,3'-indoline]-1'-yl]acetamide]",> 300 µM
26,COc1ccc(C2CC(c3ccc(Br)s3)=Nc3ncnn32)cc1OC (stereo not drawn) [SMR000032927],7.82 µM
27,O=c1c2ccccc2nc(N=NCc2ccc(O)cc2)n1O [3-Hydroxy-2-{N'-[1-(4-hydroxy-phenyl)-meth-(E)-ylidene]-hydrazino}-3H-quinazolin-4-one],> 300 µM

row,SMILES,EC50
1,CC1=C(C#N)C(=O)N(C)C(=O)C1=CNNc1ccc(F)cc1 [MLS000702698],> 300 µM
2,"O=C1C([N+](=O)[O-])=CC(Cl)=CC1/C=N/NC(=O)C(O)(c1ccccc1)c1ccccc1 (stereo not drawn) [N''''-[(E)-(3-chloro-5-nitro-6-oxocyclohexa-2,4-dien-1-ylidene)methyl]-2-hydroxy-2,2-diphenylacetohydrazide]",> 300 µM
3,COc1cc(C2c3c(-c4cccnc4)n[nH]c3OC(=N)C2C#N)cc(Br)c1O (stereo not drawn),> 300 µM
4,"C/N=c1\ccc2nc3ccccc3n(C)c-2c1 [N,10-dimethyl-2-phenazin-10-iumamine;perchlorate]",20.5 µM
5,"O=NC1CC2(CC(N=O)C1N=O)OCCO2 (stereo not drawn) [9-(hydroxyamino)-8-nitroso-1,4-dioxaspiro[4.5]dec-8-en-7-one oxime]",> 300 µM
6,O=C(O)c1ccccc1N=NCc1c(Sc2nnnn2-c2ccccc2)nc2ccccn2c1=O [MLS000775267],> 300 µM
7,COc1cc2c(cc1C1C3=C(CC(C)(C)CC3=O)OC(=N)C1C#N)OCO2 (stereo not drawn) [MLS001208406],> 300 µM
8,"Cc1ccc2oc(=O)c(CC(=O)c3cccs3)nc2c1 [(3Z)-3-[2-keto-2-(2-thienyl)ethylidene]-6-methyl-4H-1,4-benzoxazin-2-one]",21.3 µM
9,COc1ccc(OC)c(NC=C2C(=O)NC(=S)N(Cc3ccccc3)C2=O)c1,> 300 µM
10,O=C(c1ccccc1)c1[nH]n(-c2ccccc2)c2c(O)n(-c3ccccc3Cl)c(=O)c1-2 [SMR000212371],> 300 µM
11,COc1ccc(CCN2C(=O)NC(=O)C(=CNc3ccc(NC(C)=O)cc3)C2=O)cc1OC [MLS000332913],> 300 µM
12,Cc1ccc(CN=Nc2ncnc3nc[nH]c23)cc1 [MLS000419179],> 300 µM
13,C/N=C1/S/C(=C\c2ccc(N3CCCC3)c(F)c2)C(=O)N1C [(5Z)-5-(3-fluoro-4-pyrrolidino-benzylidene)-3-methyl-2-methylimino-thiazolidin-4-one],5.9 µM
14,Cn1c2cc(=N)ccc-2c2ccc(N)cc2c1-c1ccccc1 [(3-amino-5-methyl-6-phenyl-phenanthridin-5-ium-8-yl)amine;bromide],13.5 µM
15,"CN(C)c1ccc(O)c2c1CC1CC3C(N(C)C)C(=O)C(C(N)=O)C(=O)[C@@]3(O)C(=O)C1C2=O (stereo partly drawn) [(2E,12aS)-2-[azanyl(oxidanyl)methylidene]-4,7-bis(dimethylamino)-10,11,12a-tris(oxidanyl)-4a,5,5a,6-tetrahydro-4H-tetracene-1,3,12-trione;hydrochloride]",> 300 µM
16,O=C(NN=Cc1c(O)ccc2ccccc12)Nc1ccccc1,105 µM
17,"O=C(N/N=C/C1C=C(Cl)C=C([N+](=O)[O-])C1=O)c1ccc2c(c1)OCO2 (stereo not drawn) [N'-[(E)-(3-chloranyl-5-nitro-6-oxidanylidene-cyclohexa-2,4-dien-1-ylidene)methyl]-1,3-benzodioxole-5-carbohydrazide]",127 µM
18,"c1ccc(C2=Nc3nnnn3C(c3cccs3)C2)cc1 (stereo not drawn) [5-Phenyl-7-thiophen-2-yl-4,7-dihydro-tetrazolo[1,5-a]pyrimidine]",> 300 µM
19,"COc1cc(C2C3=C(CCCC3=O)OC(=N)C2C#N)ccc1OC(=O)N1CCOCC1 (stereo not drawn) [4-(2-amino-3-cyano-5-oxo-5,6,7,8-tetrahydro-4H-chromen-4-yl)-2-methoxyphenyl morpholine-4-carboxylate]",> 300 µM
20,C=c1c(C(=O)OC)c(O)c(=Cc2cccs2)n1-c1ccc(Cl)cc1 [(5E)-1-(4-chlorophenyl)-2-methyl-4-oxo-5-(thiophen-2-ylmethylidene)-3-pyrrolecarboxylic acid methyl ester],> 300 µM
21,O=C1N=c2ccccc2=C1NNc1ccc(F)cc1,> 300 µM
22,"O=C1NC(=S)N(c2ccc(F)cc2)C(=O)C1=Cc1ccco1 [(5E)-1-(4-fluorophenyl)-5-(2-furanylmethylidene)-2-sulfanylidene-1,3-diazinane-4,6-dione]",10.4 µM
23,"Cc1cccc(Nc2nc(O)cs2)c1 [2-(3-methylanilino)-1,3-thiazol-4-one]",> 300 µM
24,Cc1cc(=O)n(-c2ccc(C(=O)O)c(N)c2)[nH]1 [MLS000690508],85.5 µM
25,"CC1(C)CC(=O)C2=C(C1)OC(=N)C(C#N)C2c1cccc(OC(=O)c2ccco2)c1 (stereo not drawn) [2-furancarboxylic acid [3-(2-amino-3-cyano-7,7-dimethyl-5-oxo-6,8-dihydro-4H-1-benzopyran-4-yl)phenyl] ester]",> 300 µM
26,CCOc1cc(C2C(C(C)=O)=C(C)OC(=N)C2C#N)cc(Br)c1O (stereo not drawn) [2-azanyl-4-(3-bromanyl-5-ethoxy-4-oxidanyl-phenyl)-5-ethanoyl-6-methyl-4H-pyran-3-carbonitrile],12.3 µM
